Data from ChEMBL document CHEMBL4145548, “Pyrimidine-chloroquinoline hybrids: Synthesis and antiplasmodial activity” (Eur J Med Chem, 2018).
In brackets after ≈: the same amount, converted by molar mass. Activity calls are given as the source filed them. The rule behind the calls is not given here.

Assays:
[1] = tested on: Plasmodium falciparum; assay: Potency index, ratio of chloroquine IC50 to compound IC50 for antiplasmodial activity against chloroquine-resistant Plasmodium falciparum Dd2; format: functional
[2] = tested on: Heme; assay: Binding affinity to monomeric heme assessed as decrease in soret band intensity up to 40 uM at pH 5.6 to 7.4 by titration-based UV-vis spectrophotometric analysis
[3] = Solubility in n-octanol at pH 7.4 after 24 hrs by HPLC analysis; format: physicochemical
[4] = tested on: Calf thymus DNA; assay: Binding affinity to calf thymus DNA at 66 uM by UV-visible absorption spectral analysis; format: nucleic-acid assay; settings: Bos taurus
[5] = Aqueous solubility in pH 7.4 PBS buffer after 24 hrs by HPLC analysis; format: physicochemical
[6] = tested on: DNA; assay: Binding affinity to Escherichia coli pUC18 DNA at 17.1 uM by fluorimetry analysis; format: nucleic-acid assay
[7] = tested on: Plasmodium falciparum; assay: microbe, parasite or virus in culture; settings: NF54
Description: Antiplasmodial activity against chloroquine-sensitive Plasmodium falciparum NF54 by LDH release assay

[8] = tested on: Heme; assay: Binding affinity to monomeric heme at pH 7.4 by titration-based UV-vis spectrophotometric analysis
[9] = tested on: Calf thymus DNA; assay: Binding affinity to calf thymus DNA by UV-visible absorption spectral analysis; format: nucleic-acid assay; settings: Bos taurus
[10] = tested on: Calf thymus DNA; assay: Binding affinity to calf thymus DNA assessed as association constant by Benesi-Hildebrand equation analysis; format: nucleic-acid assay; settings: Bos taurus
[11] = tested on: Heme; assay: Binding affinity to monomeric heme by 1H NMR method
[12] = tested on: DNA; assay: Binding affinity to Escherichia coli pUC18 DNA by UV-visible absorption spectral analysis; format: nucleic-acid assay
[13] = n-octanol-phosphate buffer distribution coefficient, log D of the compound at pH 7.4 after 1 hr by HPLC method; format: physicochemical
[14] = tested on: Heme; assay: Binding affinity to monomeric heme at pH 5.6 by titration-based UV-vis spectrophotometric analysis
[15] = tested on: Vero; assay: Cytotoxicity against African green monkey Vero cells assessed as reduction in cell viability by MTT assay; format: cell-based; settings: Chlorocebus sabaeus
[16] = in vitro; settings: monkey, Vero cells
Description: Selectivity index, ratio of IC50 for African green monkey Vero cells to IC50 for chloroquine-sensitive Plasmodium falciparum NF54

[17] = tested on: mu-oxodimeric heme; assay: Binding affinity to mu-oxodimeric heme at pH 5.8 by titration-based UV-vis spectrophotometric analysis
[18] = tested on: Calf thymus DNA; assay: Binding affinity to calf thymus DNA at 17.1 uM by fluorimetry analysis; format: nucleic-acid assay; settings: Bos taurus
[19] = tested on: Calf thymus DNA; assay: Binding affinity to calf thymus DNA assessed as change in melting temperature at DNA to compound ratio of 5:1; format: nucleic-acid assay; settings: Bos taurus
[20] = tested on: Heme; assay: Binding affinity to monomeric heme at 5 umol by HRMS mass spectrum analysis
[21] = tested on: Plasmodium falciparum; assay: microbe, parasite or virus in culture; settings: Dd2
Description: Antiplasmodial activity against chloroquine-resistant Plasmodium falciparum Dd2 by LDH release assay

[22] = tested on: mu-oxodimeric heme; assay: Binding affinity to mu-oxodimeric heme assessed as decrease in soret band intensity up to 26.7 uM at pH 5.8 by titration-based UV-vis spectrophotometric analysis
[23] = tested on: unidentified; assay: Inhibition of acetate buffer-initiated beta-hematin polymerization at 1.2 equiv measured after 1 hr by FT-IR spectroscopic method

Structure (SMILES)	Ratio IC50 [1]	solubility at 24 h [3] [µM]	solubility at 24 h [5] [µM]	IC50 [7] [µM]	logD at 1 h [13]	IC50 [15] [µM]	other results
Clc1ccc2c(NCCCCNc3nccc(Cl)n3)ccnc2c1	3.2	–	–	–	–	–	–
Cc1nc(OCc2cn(CCCNc3ccnc4cc(Cl)ccc34)nn2)nc(-c2ccc([N+](=O)[O-])cc2)c1C(=O)OC(C)C	–	14.9 (≈ 9.18 µg/mL)	0.55 (≈ 0.339 µg/mL)	0.048	1.43	15.2	Activity [2]: Active; Activity [4]: Active; Activity [6]: Active; log K [8]: 4.68; log K [9]: 3.74; log K [10]: 2.29; Activity [11]: Active; log K [12]: 3.92; log K [14]: 4.27; selectivity ratio [16]: 318; log K [17]: 5.43; Activity [18]: Active; ΔTm [19]: 2.5 °C; Activity [20]: Active; IC50 [21]: 4.59 µM; Activity [22]: Active; inhibition [23]: Active
Clc1ccc2c(NCCNc3nccc(Cl)n3)ccnc2c1	3.2	–	–	–	–	–	–
C[C@H]1[C@H](OC(=O)CCC(=O)O)O[C@@H]2O[C@@]3(C)CC[C@H]4[C@H](C)CC[C@@H]1[C@@]24OO3 [ARTESUNATE]	–	–	–	< 5.2	–	–	–
COC(=O)c1c(C)nc(OCc2cn(CCCNc3ccnc4cc(Cl)ccc34)nn2)nc1-c1ccccc1	–	34.2 (≈ 18.6 µg/mL)	5.64 (≈ 3.07 µg/mL)	1.01	0.78	156	selectivity ratio [16]: 154; IC50 [21]: 1.65 µM
Clc1ccc2c(NCCCCCCCCNc3ccnc(Cl)n3)ccnc2c1	3.2	–	–	–	–	–	–
Clc1ccnc(N2CCOCC2)n1	3.2	–	–	–	–	–	–
CCOC(=O)c1c(C)nc(OCc2cn(CCCNc3ccnc4cc(Cl)ccc34)nn2)nc1C	–	21.2 (≈ 10.5 µg/mL)	8.01 (≈ 3.97 µg/mL)	0.7	0.42	> 201	selectivity ratio [16]: > 287; IC50 [21]: 1.11 µM
Clc1ccc2c(NCCCCCCCCCCCCNc3nccc(Cl)n3)ccnc2c1	3.2	–	–	–	–	–	–
Clc1ccc2c(NCCCNc3nccc(N4CCCCC4)n3)ccnc2c1	3.2	–	–	–	–	–	–
CCOC(=O)c1c(C)nc(OCc2cn(CCNc3ccnc4cc(Cl)ccc34)nn2)nc1C	–	35.6 (≈ 17.2 µg/mL)	19.1 (≈ 9.21 µg/mL)	2.49	0.27	> 207	selectivity ratio [16]: > 83; IC50 [21]: 8.14 µM
COC(=O)c1c(C)nc(OCc2cn(CCNc3ccnc4cc(Cl)ccc34)nn2)nc1-c1ccccc1	–	44.7 (≈ 23.7 µg/mL)	11.3 (≈ 5.99 µg/mL)	10.4	0.58	–	–
Cc1nc(OCc2cn(CCNc3ccnc4cc(Cl)ccc34)nn2)nc(-c2ccc([N+](=O)[O-])cc2)c1C(=O)OC(C)C	–	54.4 (≈ 32.8 µg/mL)	7.03 (≈ 4.24 µg/mL)	0.18	0.88	150	selectivity ratio [16]: 833; IC50 [21]: 0.99 µM
CC[C@H]1CN2CCc3cc(OC)c(OC)cc3[C@@H]2C[C@@H]1C[C@H]1NCCc2cc(OC)c(OC)cc21 [EMETINE]	–	–	–	–	–	0.176	–
Cc1nc(OCc2cn(-c3ccnc4cc(Cl)ccc34)nn2)nc(-c2ccccc2)c1C(=O)OC(C)C	–	52.5 (≈ 27 µg/mL)	1.78 (≈ 0.917 µg/mL)	14	1.46	–	–
Clc1ccc2c(NCCCNc3ccnc(N4CCCCC4)n3)ccnc2c1	3.2	–	–	–	–	–	–
Clc1ccc2c(NCCCNc3ccnc(Cl)n3)ccnc2c1	3.2	–	–	–	–	–	–
Cc1nc(OCc2cn(CCNc3ccnc4cc(Cl)ccc34)nn2)nc(-c2ccccc2[N+](=O)[O-])c1C(=O)OC(C)C	–	16.7 (≈ 10.1 µg/mL)	2.3 (≈ 1.39 µg/mL)	0.53	0.86	145	selectivity ratio [16]: 274; IC50 [21]: 1.08 µM
Clc1ccc2c(NCCCOc3nccc(Cl)n3)ccnc2c1	3.2	–	–	–	–	–	–

Structure (SMILES)	Ratio IC50 [1]	solubility at 24 h [3] [µM]	solubility at 24 h [5] [µM]	IC50 [7] [µM]	logD at 1 h [13]	IC50 [15] [µM]	other results
Clc1ccc2c(NCCCNc3nccc(N4CCCC4)n3)ccnc2c1	3.2	–	–	–	–	–	–
Clc1ccc2c(NCCCCCCCCCCNc3nccc(Cl)n3)ccnc2c1	3.2	–	–	–	–	–	–
CCOC(=O)c1c(C)nc(OCc2cn(CCNc3ccnc4cc(Cl)ccc34)nn2)nc1-c1ccccc1	–	21.7 (≈ 11.8 µg/mL)	3.3 (≈ 1.8 µg/mL)	1.49	0.81	149	selectivity ratio [16]: 100; IC50 [21]: 2.52 µM
Clc1ccc2c(NCCCNc3nccc(N4CCNCC4)n3)ccnc2c1	3.2	–	–	–	–	–	–
Clc1ccc2c(NCCCNc3nccc(N4CCOCC4)n3)ccnc2c1	3.2	–	–	–	–	–	–
CCOC(=O)c1c(C)nc(OCc2cn(-c3ccnc4cc(Cl)ccc34)nn2)nc1-c1ccccc1	–	66.2 (≈ 33.2 µg/mL)	5.47 (≈ 2.74 µg/mL)	12.2	1.08	–	–
Cc1nc(OCc2cn(-c3ccnc4cc(Cl)ccc34)nn2)nc(-c2ccc([N+](=O)[O-])cc2)c1C(=O)OC(C)C	–	60.5 (≈ 33.9 µg/mL)	4.54 (≈ 2.54 µg/mL)	7.86	1.12	–	–
CCOC(=O)c1c(C)nc(OCc2cn(-c3ccnc4cc(Cl)ccc34)nn2)nc1C	–	17.8 (≈ 7.8 µg/mL)	7.18 (≈ 3.15 µg/mL)	84.2	0.39	–	–
Cc1nc(OCc2cn(CCNc3ccnc4cc(Cl)ccc34)nn2)nc(-c2ccccc2)c1C(=O)OC(C)C	–	53.1 (≈ 29.6 µg/mL)	3.21 (≈ 1.79 µg/mL)	0.64	1.21	149	selectivity ratio [16]: 232; IC50 [21]: 2 µM
CCN(CC)CCCC(C)Nc1ccnc2cc(Cl)ccc12 (stereo not given)	–	–	–	–	–	–	ΔTm [19]: 4 °C
Clc1ccc2c(NCCCCCCCCNc3nccc(Cl)n3)ccnc2c1	3.2	–	–	–	–	–	–
COC(=O)c1c(C)nc(OCc2cn(-c3ccnc4cc(Cl)ccc34)nn2)nc1-c1ccccc1	–	16.3 (≈ 7.96 µg/mL)	3.31 (≈ 1.61 µg/mL)	15.8	0.69	–	–
Cc1nccc(NCCNc2ccnc3cc(Cl)ccc23)n1	3.2	–	–	–	–	–	–
Clc1ccc2c(NCCCCCCCNc3nccc(Cl)n3)ccnc2c1	3.2	–	–	–	–	–	–
Cc1nc(OCc2cn(-c3ccnc4cc(Cl)ccc34)nn2)nc(-c2ccccc2[N+](=O)[O-])c1C(=O)OC(C)C	–	37.4 (≈ 20.9 µg/mL)	2.93 (≈ 1.64 µg/mL)	16.1	1.1	–	–
CCOC(=O)c1c(C)nc(OCc2cn(CCCNc3ccnc4cc(Cl)ccc34)nn2)nc1-c1ccccc1	–	48.3 (≈ 27 µg/mL)	3.11 (≈ 1.74 µg/mL)	0.89	1.19	153	selectivity ratio [16]: 172; IC50 [21]: 1.37 µM
Clc1ccc2c(NCCCNc3ccnc(N4CCOCC4)n3)ccnc2c1	3.2	–	–	–	–	–	–
Cc1nc(OCc2cn(CCCNc3ccnc4cc(Cl)ccc34)nn2)nc(-c2ccccc2)c1C(=O)OC(C)C	–	63.5 (≈ 36.3 µg/mL)	1.21 (≈ 0.692 µg/mL)	0.33	1.72	28.5	selectivity ratio [16]: 86.4; IC50 [21]: 0.61 µM
Cc1nc(OCc2cn(CCCNc3ccnc4cc(Cl)ccc34)nn2)nc(-c2ccccc2[N+](=O)[O-])c1C(=O)OC(C)C	–	12.1 (≈ 7.49 µg/mL)	0.58 (≈ 0.358 µg/mL)	0.6	1.31	23.4	selectivity ratio [16]: 38.9; IC50 [21]: 0.86 µM
